The values below come from ChEMBL document CHEMBL3769363, “Discovery of trace amine-associated receptor 1 ligands by molecular docking screening against a homology model” (Medchemcomm, 2015).

SMILES strings stand for the structures. pEC50: −log10 of the molar value. Activity calls are given as the source filed them. The calls are words filed in the database; no cut-off is given here.

Assay [1] has as its target T1, Trace amine-associated receptor 1 (Homo sapiens) (UniProt Q96RJ0).
T1 sequence (whole entry): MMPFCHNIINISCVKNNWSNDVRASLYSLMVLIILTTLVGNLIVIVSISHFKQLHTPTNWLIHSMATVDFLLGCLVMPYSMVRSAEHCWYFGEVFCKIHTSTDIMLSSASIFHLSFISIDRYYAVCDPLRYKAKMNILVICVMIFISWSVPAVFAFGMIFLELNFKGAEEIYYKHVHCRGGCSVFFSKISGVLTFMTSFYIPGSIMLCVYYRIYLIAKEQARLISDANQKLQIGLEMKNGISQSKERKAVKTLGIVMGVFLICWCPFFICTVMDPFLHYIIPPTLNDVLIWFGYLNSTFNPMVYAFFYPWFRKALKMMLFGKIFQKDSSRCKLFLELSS
Put plainly: Agonist activity at human TAAR1 receptor expressed in HEK293T cells cotransfected with beta-2 receptor assessed as cAMP production at 100 uM by BRET assay. The class given is functional, cell-based. Particulars: HEK-293T. On the technique in general: cAMP levels reflect the balance of adenylyl cyclase and phosphodiesterase activity.

Assay [2] deals with T1, Trace amine-associated receptor 1 (Homo sapiens). Put plainly: Agonist activity at human TAAR1 receptor expressed in HEK293T cells cotransfected with beta-2 receptor assessed as cAMP production by BRET assay relative to beta-PEA. On the set-up: concentration or dose not given beside the values. The class given is functional, cell-based. To be noted: HEK-293T.
Assay [3] addresses T2, Trace amine-associated receptor 1 (Homo sapiens, UniProt Q96RJ0).
T2 sequence (Q96RJ0 whole entry): T1 sequence (whole entry)
Put plainly: Agonist activity at human TAAR1 receptor expressed in HEK293T cells cotransfected with beta-2 receptor assessed as cAMP production by BRET assay. The class given is functional, cell-based, HEK-293T.

For assay [4], the target named is T1, Trace amine-associated receptor 1 (Homo sapiens). The experiment in a line: Antagonist activity at human TAAR1 receptor expressed in HEK293T cells cotransfected with beta-2 receptor assessed as inhibition of beta-PEA-induced cAMP production at 100 uM by BRET assay. In kind it is functional, cell-based. To be noted: HEK-293T.

`C#CCN[C@H](C)Cc1ccccc1`: the result in assay [1] was Active. With `c1ccc2sc(C3CCCN3)nc2c1` (centres undefined), the Activity in assay [2] was determined as 42.9%. Moreover, the pEC50 – broadly, the EC50 on a negative log10 scale, so that one unit is a factor of ten – in assay [3] was < 4.00.

For `CCn1c(C2CCCN2)nc2ccccc21` (centres undefined), the Activity in assay [2] was 22.1%. For the same compound, the negative-log EC50 (pEC50) in assay [3] is < 4.00. With `Fc1ccc2c(CCNCc3cnn(-c4ccccc4)c3)c[nH]c2c1`, the result in assay [4] was Active. As to `Cn1c(CN)nc2ccccc21`, in assay [2], the Activity turned out to be 21.6%. For the same compound, the pEC50 in assay [3] was < 4.00. With `Clc1ccc(CNCc2ccc(Cn3cncn3)cc2)c(Cl)c1`, the result in assay [4] was Active. For the compound `N=C(N)N/N=C/c1cccc(OCc2ccccc2)c1`, the Activity in assay [2] came to 75%.

`N=C(N)c1cccc(COc2ccccc2)c1`: the result in assay [4] was Active. Still for that read-out and setting: in the case of `C=CCn1cc(CN[C@H](C)Cn2ccc3ccccc32)c(C)n1` it was “Active”. In the case of `COc1ccc2[nH]cc(CN(C)C)c2c1`, in assay [1], the result was Active. On to `CCC(=O)/N=C(\N)Nc1nc2ccccc2o1`, for which, in assay [4], the result was Active. As to `N=C(N)N/N=C1\CCCc2ccccc21`, the result in assay [4] was Active.

As for `C[C@@H](CNCCO)c1ccccc1`, the result in assay [1] was Active. On to `NC(N)=N/N=C/c1cccc(OCc2ccccc2)c1`, for which the pEC50 in assay [3] was < 4.00. Take `CN(Cn1ncc2cc([N+](=O)[O-])ccc21)[C@@H]1CCc2ccccc21`: the result in assay [1] was Active. Turning to `COc1cccc(/C=N/NC(=N)N)c1`, the Activity in assay [2] was 24%. The outcome in assay [1] and in assay [4] was Active. For the compound `c1ccc2c(c1)nnn2C[C@H]1CCCN1`, the result in assay [1] was Active. On to `NCCc1ccccc1` [PHENETHYLAMINE], for which the pEC50 in assay [3] is 6.96. As for `Cn1c(C2CCCCN2)nc2ccccc21` (centres undefined), the Activity in assay [2] came out at 38.4%. In assay [3], the pEC50 was < 4.00.

Take `N=C(N)N/N=C/c1cccc(Br)c1`: in assay [2], the Activity was -5.4%.

With `N=C(N)N/N=C/c1ccccc1`, the Activity in assay [2] is 85.5%. In addition, in assay [3], the pEC50 is 6.77. As for `N=C(N)N/N=C/c1ccc2c(c1)OCO2`, the Activity in assay [2] turned out to be 6.9%. For the same compound, the negative-log EC50 (pEC50) in assay [3] is < 4.00. As for `N=C(N)N/N=C/c1c(Cl)cccc1Cl` [GUANABENZ], the Activity in assay [2] worked out at 35.5%. For the same compound, the pEC50 in assay [3] is 7.05. On to `NC(N)=N/N=C/c1cccc(Br)c1`, for which, in assay [3], the pEC50 is < 4.00. For `Cc1cccc(CCN(C)C[C@H](O)c2ccccc2)c1`, the Activity in assay [2] was 67.5%. In addition, the result in assay [1] was Active. Also, the pEC50 in assay [3] was 4.29. As to `CNCc1nc2ccccc2n1C(F)F`, the result in assay [1] was Active. Turning to `CN(Cc1ccc(Br)cc1)Cc1cccc(C(N)=O)c1`, in assay [4], the result was Active.

For `CC(C)n1c(C2CCCN2)nc2ccccc21` (centres undefined), the Activity in assay [2] came out at 43.4%. For the same compound, in assay [3], the pEC50 was 4.92. Regarding `Cn1c(C2CCCN2)nc2ccccc21` (centres undefined), the Activity in assay [2] stood at 55.8%. Further, the result in assay [1] was Active. Moreover, the negative-log EC50 (pEC50) in assay [3] is 4.74. Turning to `COc1cccc(/C=N/N=C(N)N)c1`, the pEC50 in assay [3] is 5.91.
